The values that follow come from patent US8748462B2, “Spirocyclic GPR40 modulators” (Amgen Inc., priority 2008, dated 2014).

Assay [1] deals with T1, human GPR40 (Homo sapiens, UniProt O14842).
T1 construct: expressed in transfected cells; host or cells: CHO cells stably transfected with GPR40 and Aequorin
In words: Cell-based aequorin assay. Particulars: CHO cells stably transfected with GPR40 and aequorin; 0.01% HSA. As for the experimental part:
Cell-based aequorin assays were employed to characterize the modulatory activity of compounds on the GPR40 signaling pathway. In an exemplary assay, CHO cells were stably transfected with both GPR40 and Aequorin (Euroscreen). Cells were detached from the tissue culture dish with 2 mL of trypsin (0.25% (w/v)). Trypsinization was halted with 28 mL of Hanks Buffered Salt Solution containing 20 mM Hepes (H/HBSS) and 0.01% fatty acid-free human serum albumin (HSA). Coelantrazine is added to 1 ug/mL, and the cells were incubated for 2 hours at room temperature. Compounds were dissolved in DMSO for preparation of 10 mM stock solutions. Compounds were diluted in H/HBSS containing 0.01% HSA. Serial dilutions of the test compounds were prepared to determine dose response.
Aequorin luminescence measurements were made using an EG&G Berthold 96-well luminometer, and the response was measured over a 20 second interval after cells and compounds were mixed. The maximum relative light units was plotted to determine dose response. The EC50 (effective concentration to reach 50% maximal response) was determined from the dose response plot.

Assay [2] deals with T1, human GPR40. Briefly: Inositol phosphate accumulation assay. Particulars: A9 cell line stably transfected with GPR40; 1 hour at 37° C.; read-out: IP3 EC50. The assay is classed as cell-based. The protocol:
An A9 cell line stably transfected with GPR40 (A9_GPR40) was used in IP accumulation assays. A9_GPR40 cells were plated in 96-well plates containing 20,000 cells/well in DMEM containing 10% FBS. After the cells attached to the well surface, the media was replaced with inositol free DMEM containing 10% dialyzed FBS and 1 μCi, mL ^3H-inositol and incubated for 16 hours. Compounds were diluted in HBSS/10 mM LiCl containing a desired amount of HSA and added directly to cells. Following 1 hour incubation at 37° C., the media was replaced with 100 μL of 20 mM formic acid to quench the reaction. 50 μL of the extract was then added to 100 μL of SPA beads, incubated overnight, and measured on a TopCount the following day.

T1 sequence (O14842 whole entry): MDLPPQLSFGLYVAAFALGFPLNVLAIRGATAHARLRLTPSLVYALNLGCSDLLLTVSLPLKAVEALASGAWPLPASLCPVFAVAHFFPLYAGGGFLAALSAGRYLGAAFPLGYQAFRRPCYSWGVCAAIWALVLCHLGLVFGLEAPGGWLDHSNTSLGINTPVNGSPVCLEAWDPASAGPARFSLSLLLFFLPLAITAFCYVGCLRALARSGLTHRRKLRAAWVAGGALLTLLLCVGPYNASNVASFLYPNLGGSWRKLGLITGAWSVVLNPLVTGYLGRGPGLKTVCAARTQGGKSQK

Regarding `COc1cc(-c2ccc(COc3cc(F)c4c(c3F)[C@]3(CC4)C[C@H]3C(=O)O)cc2[C@H](OC)C(C)(C)C)c(F)cn1` (single isomer, unassigned) [Example 127], the EC50 (commonly the concentration needed to bring the measured effect to its halfway point) at human GPR40 [1] was 100 to 1000 nM; on human GPR40 [2], less than 10 nM.
The like results for `CCCOc1ccc(COc2ccc3c(c2)[C@]2(CCC3)C[C@H]2C(=O)O)cc1[C@@H]1CCCC1(C)C` (single isomer, unassigned) [Example 129] were, in that order, 1000 to 10000 nM and 100 to 1000 nM.
For `CC(C)COc1ccc(COc2ccc3c(c2)[C@]2(CCC3)C[C@H]2C(=O)O)cc1[C@@H]1CCCC1(C)C` (single isomer, unassigned) [Example 130], the results for the EC50 on human GPR40 [1] and at human GPR40 [2] were 1000 to 10000 nM and 100 to 1000 nM, respectively.
The like results for `COCCOc1ccc(COc2ccc3c(c2)[C@]2(CCC3)C[C@H]2C(=O)O)cc1[C@@H]1CCCC1(C)C` (single isomer, unassigned) [Example 131] were, in that order, 1000 to 10000 nM and 100 to 1000 nM.
Regarding `COc1ccc(F)c(-c2ccc(COc3ccc4c(c3)C3(CC4)CCC3C(=O)O)cc2[C@@H]2CCCC2(C)C)c1` (single isomer, unassigned) [Example 148], the concentration giving a half-maximal response (EC50) fell in the range of 100 to 1000 nM at human GPR40 [1] and 10 to 100 nM at human GPR40 [2].
`COc1ccc(F)c(-c2ccc(COc3ccc4c(c3)C3(CC4)CCC3C(=O)O)cc2C(OC)C(C)(C)C)c1` (single isomer, unassigned) [Example 149]: the concentration for a half-maximal effect (EC50) at human GPR40 [1] was 100 to 1000 nM; at human GPR40 [2], less than 10 nM.
The like results for `COc1cc(-c2ccc(COc3ccc4c(c3)[C@]3(CC4)CC[C@@H]3C(=O)O)cc2[C@@H]2CCCC2(C)C)c(F)cn1` (single isomer, unassigned) [Example 150] were, in that order, 100 to 1000 nM and less than 10 nM.
For `COc1ccc(F)c(-c2ccc(COc3ccc4c(c3)[C@]3(CC4)CC[C@@H]3C(=O)O)cc2C2=CCCC2(C)C)c1` (single isomer, unassigned) [Example 151] the same measures were 100 to 1000 nM and 10 to 100 nM.
For `COc1ccc(F)c(-c2ccc(COc3ccc4c(c3)[C@]3(CCC4)CC[C@@H]3C(=O)O)cc2[C@@H]2CCCC2(C)C)c1` (single isomer, unassigned) [Example 154] the same measures were 100 to 1000 nM and 10 to 100 nM.
`COc1ccc(F)c(-c2ccc(COc3ccc4c(c3)C3(CCC4)CCC3C(=O)O)cc2C(OC)C(C)(C)C)c1` (single isomer, unassigned) [Example 155]: the half-maximal effective concentration (EC50) on human GPR40 [1] is 100 to 1000 nM; on human GPR40 [2], less than 10 nM.
Regarding `COc1cc(-c2ccc(COc3ccc4c(c3)C3(CCC4)CCC3C(=O)O)cc2[C@@H]2CCCC2(C)C)c(F)cn1` (single isomer, unassigned) [Example 156], the half-maximal effective concentration (EC50) fell in the range of 100 to 1000 nM at human GPR40 [1] and 10 to 100 nM on human GPR40 [2].
For `COc1ccc(F)c(-c2ccc(COc3ccc4c(c3)[C@]3(CCC4)CC[C@@H]3C(=O)O)cc2C2=CCCC2(C)C)c1` (single isomer, unassigned) [Example 158] the same measures were 100 to 1000 nM and 10 to 100 nM.
For `COc1cc(-c2ccc(COc3ccc4c(c3F)[C@]3(CC4)C[C@H]3C(=O)O)cc2[C@@H]2CCCC2(C)C)c(Cl)cn1` (stereo in doubt) [Example 125] the same measures were 100 to 1000 nM and 10 to 100 nM.
For `COc1ccc(F)c(-c2ccc(COc3ccc4c(c3)[C@]3(CC4)C[C@H]3C(=O)O)cc2C2=CCCC2(C)C)c1` [Example 1] the same measures were 100 to 1000 nM and less than 10 nM.
For the molecule `COc1ccc(F)c(-c2ccc(COc3ccc4c(c3)[C@]3(CC4)C[C@H]3C(=O)O)cc2CC(C)(C)C)c1` [Example 13], the EC50 on human GPR40 [1] was 10 to 100 nM; on human GPR40 [2], less than 10 nM.
The like results for `COc1cc(-c2ccc(COc3ccc4c(c3)[C@]3(CC4)C[C@H]3C(=O)O)cc2[C@@H]2CCCC2(C)C)c(F)cn1` [Example 19, (1R,2R)-6′-(3-((R)-2,2-Dimethylcyclopentyl)-4-(5-fluoro-2-methoxypyridin-4-yl)benzyloxy)-2′,3′-dihydrospiro[cyclopropane-1,1′-indene]-2-carboxylic acid] were, in that order, 10 to 100 nM and less than 10 nM.
The like results for `COc1ccc(F)c(-c2ccc(COc3ccc4c(c3)[C@]3(CC4)C[C@H]3C(=O)O)cc2C2=CCCC2)c1` [Example 20] were, in that order, 100 to 1000 nM and 10 to 100 nM.
On to `COc1ccc(F)c(-c2ccc(COc3ccc4c(c3)[C@]3(CC4)C[C@H]3C(=O)O)cc2C2(OC)CCCC2)c1` [Example 22], for which the concentration giving a half-maximal response (EC50) at human GPR40 [1] was in the range of 100 to 1000 nM; on human GPR40 [2], 10 to 100 nM.
For the molecule `CCCCOc1cc(COc2ccc3c(c2)[C@]2(CC3)C[C@H]2C(=O)O)ccc1-c1cc(OC)ccc1F` [Example 24], the values for the half-maximal effective concentration (EC50) at human GPR40 [1] and on human GPR40 [2] were 100 to 1000 nM and 10 to 100 nM, respectively.
As to `CCCCOc1cc(COc2ccc3c(c2)[C@]2(CC3)C[C@H]2C(=O)O)ccc1-c1cccc(OC)c1` [Example 25], the EC50 on human GPR40 [1] and at human GPR40 [2] was 100 to 1000 nM in each case.
Turning to `COc1cc(-c2ccc(COc3ccc4c(c3)[C@]3(CCC4)C[C@H]3C(=O)O)cc2[C@@H]2CCCC2(C)C)c(F)cn1` [Example 48], the EC50 was 10 to 100 nM at human GPR40 [1] and less than 10 nM on human GPR40 [2].
For `COc1ccc(F)c(-c2ccc(COc3ccc4c(c3)[C@]3(CCC4)C[C@H]3C(=O)O)cc2C2=CCCC2(C)C)c1` [Example 49] the same measures were 100 to 1000 nM and 10 to 100 nM.
For `COc1cc(-c2ccc(COc3ccc4c(c3F)[C@]3(CCC4)C[C@H]3C(=O)O)cc2[C@@H]2CCCC2(C)C)c(F)cn1` [Example 55] the same measures were 100 to 1000 nM and less than 10 nM.
